Each structure is given as a SMILES string.

In the assay the target is T1, human TRPM8 (Homo sapiens, UniProt Q7Z2W7).
T1 construct: expressed in transfected cells; host or cells: Chinese hamster ovary (CHO) cells, T-REx tetracycline-inducible system, co-transfected with aequorin
The assay can be described thus: Luminescence readout assay for measuring intracellular calcium, icilin activation. The format is cell-based. The note with it: CHO cells expressing human TRPM8, aequorin luminescence, 1 μM icilin activation; read-out: hTRPM8 IC50. In a few lines:
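The read-out was luminescence reporting intracellular calcium, recorded by a CCD-based luminometer. Compounds were preincubated for 2.5 min before agonist challenge with 1 μM icilin. Human TRPM8 was expressed in a stable T-REx CHO line, induced with 0.5 μg/mL tetracycline the day before.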

T1 sequence (Q7Z2W7 whole entry): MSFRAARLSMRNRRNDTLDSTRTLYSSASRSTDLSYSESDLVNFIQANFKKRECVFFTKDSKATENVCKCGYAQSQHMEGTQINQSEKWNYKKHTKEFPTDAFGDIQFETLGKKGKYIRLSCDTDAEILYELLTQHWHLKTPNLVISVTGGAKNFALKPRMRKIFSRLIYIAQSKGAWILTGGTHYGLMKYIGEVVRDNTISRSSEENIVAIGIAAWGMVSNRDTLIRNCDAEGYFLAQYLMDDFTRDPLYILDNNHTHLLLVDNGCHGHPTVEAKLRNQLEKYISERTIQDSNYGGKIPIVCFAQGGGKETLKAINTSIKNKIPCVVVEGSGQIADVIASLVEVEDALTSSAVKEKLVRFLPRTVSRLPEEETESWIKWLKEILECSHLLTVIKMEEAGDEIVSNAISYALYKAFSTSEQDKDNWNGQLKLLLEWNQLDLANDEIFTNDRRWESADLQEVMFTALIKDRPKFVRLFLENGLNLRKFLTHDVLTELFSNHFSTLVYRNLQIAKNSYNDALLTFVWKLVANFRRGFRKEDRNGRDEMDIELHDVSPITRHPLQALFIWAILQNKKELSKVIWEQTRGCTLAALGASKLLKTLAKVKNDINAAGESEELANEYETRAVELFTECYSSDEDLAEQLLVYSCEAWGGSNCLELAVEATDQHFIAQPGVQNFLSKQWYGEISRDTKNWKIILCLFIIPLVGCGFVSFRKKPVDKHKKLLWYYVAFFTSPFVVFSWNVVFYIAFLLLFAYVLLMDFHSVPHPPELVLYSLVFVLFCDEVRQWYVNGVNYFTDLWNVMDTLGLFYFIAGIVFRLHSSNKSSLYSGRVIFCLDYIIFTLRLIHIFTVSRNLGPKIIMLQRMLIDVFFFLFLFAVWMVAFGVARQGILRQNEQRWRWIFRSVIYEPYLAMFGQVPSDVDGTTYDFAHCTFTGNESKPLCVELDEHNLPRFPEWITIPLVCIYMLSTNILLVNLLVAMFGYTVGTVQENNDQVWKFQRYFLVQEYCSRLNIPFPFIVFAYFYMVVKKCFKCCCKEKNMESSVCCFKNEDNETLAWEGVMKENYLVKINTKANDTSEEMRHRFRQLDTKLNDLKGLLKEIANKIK

A word on the IC50: it is the point on the concentration scale where inhibition reaches its midpoint. `Cc1ncc(C(=O)N[C@@H](c2ccc(C(F)(F)F)cc2)c2ncccc2C(F)(F)F)cn1` [Example 57, (S)-2-methyl-N-((4-(trifluoromethyl)phenyl)(3-(trifluoromethyl)pyridin-2-yl)methyl)pyrimidine-5-carboxamide]: the IC50 turned out to be 63.1 nM. Regarding `O=C(N[C@@H](c1ccc(C(F)(F)F)cc1)c1ncccc1C(F)(F)F)c1ccc(-c2nnn[nH]2)cc1` [Example 141, (S)-4-(1H-tetrazol-5-yl)-N-((4-(trifluoromethyl)phenyl)(3-(trifluoromethyl)pyridin-2-yl)methyl)benzamide], the IC50 was 160 nM. For `COc1ncccc1C(=O)NC(c1ccc(C(F)(F)F)cc1)c1ncccc1F` (stereo not drawn) [Example 36, N-((3-fluoropyridin-2-yl)(4-(trifluoromethyl)phenyl)methyl)-2-methoxynicotinamide], the IC50 turned out to be 73 nM.

In the case of `O=C1Cc2ccc(C(=O)N[C@@H](c3ccc(OC(F)(F)F)cc3)c3ncccc3F)cc2N1` [Example 90, (S)-N-((3-fluoropyridin-2-yl)(4-(trifluoromethoxy)phenyl)methyl)-2-oxoindoline-6-carboxamide], the half-inhibitory concentration (IC50) was found to be 6.2 nM. Turning to `Cn1cc(C(=O)N[C@@H](c2ccc(F)cc2)c2ncccc2F)ccc1=O` [Example 341, (S)-N-((4-fluorophenyl)(3-fluoropyridin-2-yl)methyl)-1-methyl-6-oxo-1,6-dihydropyridine-3-carboxamide], the IC50 was determined as 4280 nM. `O=C(O)c1ccc(C(=O)N[C@@H](c2ccc(C(F)(F)F)cc2)c2ncccc2C(F)(F)F)cc1` [Example 283, (S)-4-(((4-(Trifluoromethyl)phenyl)(3-(trifluoromethyl)-pyridin-2-yl)methyl)carbamoyl)benzoic Acid]: the IC50 came to 21.8 nM. In the case of `O=C(NC(c1ccc(C(F)(F)F)cc1)c1ncccc1F)c1ccccc1` (stereo not drawn) [Example 193, N-((3-fluoropyridin-2-yl)(4-(trifluoromethyl)phenyl)methyl)benzamide] it was 34.8 nM; in that of `O=C(N[C@@H](c1ccc(OC(F)(F)F)cc1)c1ncccc1F)c1ccc2cccnc2c1` [Example 2, (S)-N-((3-fluoropyridin-2-yl)(4-(trifluoromethoxy)phenyl)methyl)quinoline-7-carboxamide], 17 nM; in that of `Cc1cc([C@H](NC(=O)c2ccc(=O)[nH]c2)c2ncccc2F)ccc1OC(F)(F)F` [Example 381, (S)-N-((3-fluoropyridin-2-yl)(3-methyl-4-(trifluoromethoxy)phenyl)methyl)-6-oxo-1,6-dihydropyridine-3-carboxamide], 10.4 nM.

As for `O=C(N[C@@H](c1ccc(C(F)(F)F)cc1)c1ncccc1C(F)(F)F)c1cnc2ccccc2c1` [Example 230, (S)-N-((4-(trifluoromethyl)phenyl)(3-(trifluoromethyl)pyridin-2-yl)methyl)quinoline-3-carboxamide], the IC50 worked out at 83.7 nM.

In the case of `CC(=O)Nc1ccc(C(=O)N[C@@H](c2ccc(OC(F)(F)F)c(F)c2)c2ncccc2F)cc1O` [Example 390, (S)-4-acetamido-N-((3-fluoro-4-(trifluoromethoxy)phenyl)(3-fluoropyridin-2-yl)methyl)-3-hydroxybenzamide], the IC50 was found to be 136 nM.

Turning to `O=C(O)COc1ccc(C(=O)N[C@@H](c2ccc(C(F)(F)F)cc2)c2ncccc2F)nc1` [Example 279, (S)-2-((6-(((3-Fluoropyridin-2-yl)(4-(trifluoromethyl)phenyl)-methyl)carbamoyl)pyridin-3-yl)oxy)acetic Acid], the IC50 worked out at 1810 nM. In the case of `Nc1cnccc1C(=O)N[C@@H](c1ccc(C(F)(F)F)cc1)c1ncccc1C(F)(F)F` [Example 139, (S)-3-amino-N-((4-(trifluoromethyl)phenyl)(3-(trifluoromethyl)pyridin-2-yl)methyl)isonicotinamide] it was 65.9 nM; in that of `O=C(N[C@@H](c1cnc2cccc(Cl)c2c1)c1ncccc1C(F)(F)F)c1ccc2cccnc2c1` [Example 9, (S)-N-((5-chloroquinolin-3-yl)(3-(trifluoromethyl)pyridin-2-yl)methyl)quinoline-7-carboxamide], 146 nM.

Turning to `COc1ccc(C(=O)N[C@@H](c2ccc(C(F)(F)F)cc2)c2ncccc2C(F)(F)F)nn1` [Example 37, (S)-6-methoxy-N-((4-(trifluoromethyl)phenyl)(3-(trifluoromethyl)pyridin-2-yl)methyl)pyridazine-3-carboxamide], the IC50 stood at 146 nM. As for `O=C(N[C@@H](c1cnc2ccc(Cl)cc2c1)c1ncccc1C(F)(F)F)c1ccc2cccnc2c1` [Example 4, (S)-N-((6-chloroquinolin-3-yl)(3-(trifluoromethyl)pyridin-2-yl)methyl)quinoline-7-carboxamide], the IC50 amounted to 44 nM. For the molecule `Cn1c(=O)c(=O)n(O)c2ccc(C(=O)N[C@@H](c3ccc(OC(F)(F)F)c(F)c3)c3ncccc3F)cc21` [Example 436, (S)—N-((3-Fluoro-4-(trifluoromethoxy)phenyl)(3-fluoropyridin-2-yl)methyl)-1-hydroxy-4-methyl-2,3-dioxo-1,2,3,4-tetrahydroquinoxaline-6-carboxamide], the IC50 is 22.4 nM. As to `CC(O)c1ccc([C@H](NC(=O)c2ccc3cccnc3c2)c2ncccc2C(F)(F)F)cc1` (stereo partly drawn) [Example 26, N-((1S)-(4-(1-hydroxyethyl)phenyl)(3-(trifluoromethyl)pyridin-2-yl)methyl)quinoline-7-carboxamide], the concentration for half-maximal inhibition (IC50) was 3290 nM. In the case of `COc1cccc(C(=O)NC(c2ccc(C(F)(F)F)cc2)c2ncccc2F)c1` (stereo not drawn) [Example 214, N-((3-fluoropyridin-2-yl)(4-(trifluoromethyl)phenyl)methyl)-3-methoxybenzamide] it was 121 nM; in that of `O=C(N[C@@H](c1ccc(Cl)c(F)c1)c1ncccc1F)c1ccc(=O)[nH]c1` [Example 344, (S)-N-((4-chloro-3-fluorophenyl)(3-fluoropyridin-2-yl)methyl)-6-oxo-1,6-dihydropyridine-3-carboxamide], 45.1 nM.

In the case of `O=C1Cc2ccc(C(=O)N[C@@H](c3ccc(C(F)(F)F)cc3)c3ncccc3F)cc2N1` [Example 71, (S)-N-((3-fluoropyridin-2-yl)(4-(trifluoromethyl)phenyl)methyl)-2-oxoindoline-6-carboxamide], the half-inhibitory concentration (IC50) came to 9.2 nM.

Take `O=C(N[C@@H](c1ccc(C(F)(F)F)cc1)c1ncccc1C(F)(F)F)c1ccno1` [Example 220, (S)-N-((4-(trifluoromethyl)phenyl)(3-(trifluoromethyl)pyridin-2-yl)methyl)isoxazole-5-carboxamide]: the IC50 worked out at 164 nM. Turning to `Cc1ncoc1C(=O)N[C@@H](c1ccc(C(F)(F)F)cc1)c1ncccc1C(F)(F)F` [Example 190, (S)-4-methyl-N-((4-(trifluoromethyl)phenyl)(3-(trifluoromethyl)pyridin-2-yl)methyl)oxazole-5-carboxamide], the 50% inhibitory concentration (IC50) came out at 33.1 nM. On to `O=C(N[C@@H](c1ccc(C(F)(F)F)cc1)c1ncccc1F)c1ccc(=O)n(C(F)F)c1` [Example 396, (S)-1-(difluoromethyl)-N-((3-fluoropyridin-2-yl)(4-(trifluoromethyl)phenyl)methyl)-6-oxo-1,6-dihydropyridine-3-carboxamide], for which the IC50 is 20.1 nM. For the molecule `O=C(N[C@@H](c1ccc(C(F)(F)F)c(F)c1)c1ncccc1C(F)(F)F)c1ccccn1` [Example 112, (S)-N-((3-fluoro-4-(trifluoromethyl)phenyl)(3-(trifluoromethyl)pyridin-2-yl)methyl)picolinamide], the 50% inhibitory concentration (IC50) amounted to 84.4 nM. With `O=C(CC1CCOC1)N[C@@H](c1ccc(C(F)(F)F)cc1)c1ncccc1C(F)(F)F` (stereo partly drawn) [Example 157, 2-(THF-3-yl)-N-((S)-(4-(trifluoromethyl)phenyl)(3-(trifluoromethyl)pyridin-2-yl)methyl)acetamide] the figure was 716 nM; with `COc1ccc(C(=O)N[C@@H](c2ccc(C(F)(F)F)cc2)c2ncccc2F)cn1` [Example 46, (S)-N-((3-fluoropyridin-2-yl)(4-(trifluoromethyl)phenyl)methyl)-6-methoxynicotinamide], 12.3 nM; with `O=C(N[C@@H](c1ccc(C(F)(F)F)cc1)c1ncccc1F)c1ccc2[nH]c(=O)oc2c1` [Example 78, (S)-N-((3-fluoropyridin-2-yl)(4-(trifluoromethyl)phenyl)methyl)-2-oxo-2,3-dihydrobenzo[d]oxazole-6-carboxamide], 14.8 nM.

With `O=C(N[C@@H](c1ccc(C(F)(F)F)cc1)c1ncsc1Br)c1ccc2ncccc2c1` [Example 259, (S)-N-((5-bromothiazol-4-yl)(4-(trifluoromethyl)phenyl)methyl)quinoline-6-carboxamide 2,2,2-trifluoroacetate], the IC50 turned out to be 128 nM. Consider `O=C(N[C@@H](c1ccc(C(F)(F)F)c(F)c1)c1ncccc1C(F)(F)F)c1cnccn1` [Example 111, (S)-N-((3-fluoro-4-(trifluoromethyl)phenyl)(3-(trifluoromethyl)pyridin-2-yl)methyl)pyrazine-2-carboxamide], for which the IC50 is 55.9 nM. Take `Nc1n[nH]c(C(=O)N[C@@H](c2ccc(C(F)(F)F)cc2)c2ncccc2C(F)(F)F)n1` [Example 159, (S)-3-amino-N-((4-(trifluoromethyl)phenyl)(3-(trifluoromethyl)pyridin-2-yl)methyl)-1H-1,2,4-triazole-5-carboxamide]: the IC50 was found to be 2210 nM. Regarding `O=C(NC(c1ccc(OC(F)(F)F)c(F)c1)c1c(F)cccc1F)c1ccc(=O)[nH]c1` (stereo not drawn) [Example 418, N-((2,6-difluorophenyl)(3-fluoro-4-(trifluoromethoxy)phenyl)methyl)-6-oxo-1,6-dihydropyridine-3-carboxamide], the IC50 was 65 nM.

As to `O=C(N[C@@H](c1ccc(C(F)(F)F)cc1)c1ncccc1C(F)(F)F)c1cc(O)ccn1` [Example 62, (S)-4-hydroxy-N-((4-(trifluoromethyl)phenyl)(3-(trifluoromethyl)pyridin-2-yl)methyl)picolinamide], the 50% inhibitory concentration (IC50) was 172 nM.

These data come from patent US8710043B2, “TRPM8 antagonists and their use in treatments” (Amgen Inc., priority 2011, dated 2014).
